From US9604996B2 (Bayer Pharma Aktiengesellschaft, priority 2013, dated 2017)

Experiments:
[1] = test system: IL-6 release by human fibroblast cell line LL29; test: NECA-induced IL-6 release by LL29 fibroblasts (ELISA); format: cell-based; conditions: NECA 10 μM, 24 hours incubation, IL-6 ELISA of supernatant, in some cases means, rounded to two significant digits
Protocol: B-2. Measurement of NECA-Induced IL-6 Release by LL29 Fibroblasts
Stimulation of fibroblasts with adenosine or the adenosine analog 5′-N-ethylcarboxamidoadenosine (NECA) leads to release of the pro-inflammatory and pro-fibrotic cytokine IL-6 which can be prevented by inhibition of the A2b receptor.
Accordingly, confluent cells of the human fibroblast cell line LL29 were treated with the test substances and stimulated with NECA (10 μM). After an incubation time of 24 hours, the cell supernatant is removed and human IL-6 in the cell supernatant is determined by ELISA (Quantikine® IL6 ELISA, R&D Systems, Minneapolis, USA).

[2] = target: T1, human adenosine A2b receptor (Homo sapiens, UniProt P29275); test: Cellular reporter gene (CRE-luciferase) A2b receptor antagonist assay in recombinant CHO-K1 cells stimulated with NECA; format: cell-based; conditions: recombinant CHO-K1 cell line, co-incubation with EC50 concentration of NECA, 3 hours, in some cases means, rounded to two significant digits
T1 construct: expressed in transfected cells; host or cells: CHO-K1 (Chinese Hamster Ovary) with CRE-luciferase reporter
T1 sequence (P29275 1-332): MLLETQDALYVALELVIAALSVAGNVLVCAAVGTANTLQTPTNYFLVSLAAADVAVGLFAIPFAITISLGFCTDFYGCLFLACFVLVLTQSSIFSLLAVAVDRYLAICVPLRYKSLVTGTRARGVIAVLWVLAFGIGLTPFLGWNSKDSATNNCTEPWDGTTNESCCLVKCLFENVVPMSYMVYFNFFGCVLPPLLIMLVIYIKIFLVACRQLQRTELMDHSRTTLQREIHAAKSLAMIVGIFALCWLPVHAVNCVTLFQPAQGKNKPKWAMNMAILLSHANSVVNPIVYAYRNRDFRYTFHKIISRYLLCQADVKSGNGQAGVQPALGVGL
How it was run: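 CHO-K1 cells expressing human A2b receptor with a CRE-driven firefly luciferase reporter, co-incubated with test compound and NECA at its same-day EC50 concentration. Luminescence read 3 hours after NECA addition.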

| SMILES | IC50 [1] [µM] | IC50 [2] [µM] |
| --- | --- | --- |
| Cc1c(C(=O)N2CCC(O)CC2)sc2c1c(=O)n(CCc1ccccc1)c(=O)n2CCC(F)(F)F [Example 1, 6-[(4-Hydroxypiperidin-1-yl)carbonyl]-5-methyl-3-(2-phenylethyl)-1-(3,3,3-trifluoropropyl)thieno[2,3-d]pyrimidine-2,4(1H,3H)-dione] | 0.059 | 0.037 |
| Cc1c(C(=O)N2CCC(O)CC2)sc2c1c(=O)n(CCc1ccccc1)c(=O)n2CCC=C(F)F [Example 2, 1-(4,4-Difluorobut-3-en-1-yl)-6-[(4-hydroxypiperidin-1-yl)carbonyl]-5-methyl-3-(2-phenylethyl)thieno[2,3-d]pyrimidine-2,4(1H,3H)-dione] | 0.053 | 0.044 |
